Here are results for one sequence from patent US8304238B2, “Cell culture medium and immobilized preparation of cell adhesion protein or peptide” (Nat'l Institute for Environmental Studies, priority 2003, dated 2012).

Where no end group is shown, it is not given here. A value given as a limit tells only on which side of the number the result lay.

For test [1], the system named is alveolar type II epithelial cells (T2 cells). The test is described as follows: Static and forced stretching culture of T2 cells on MMAC-coated silicone wells with immobilized proteins or peptides. In kind it is cell-based. The protocol: A silicone well coated with MMAC was obtained by pouring 0.5 ml of ethanol solution of 50 μg/ml of MMAC (ISP, International Specialty Products, USA) into a silicone well with a groove of 20 mm×20 mm×10 mm, absorbing excess solution, and conducting air-drying.
Into the silicone wells coated by the method described in Example 1, 10 μg/ml of cell adhesion protein solution of fibronectin (FN), laminin-1 (LN), dissolved in 0.1 M triethanolamine buffer solution of pH 8.8, or 0.25 mg/ml of cell adhesion peptide solution of FIB-1, AG73 was poured respectively, and the reaction was conducted for at least several hours at 37° C. to bind and immobilize these proteins or peptides having cell adhesion activity (see Example 6 described later for particulars of immobilization). Subsequently, alveolar type II epithelial cell (T2 cells) suspension was poured, 5×10^4/cm^2 per unit area, and the culture was started in a CO2 culture apparatus.
T2 cells, 2×10^5/cm^2 per unit area, were seeded on the silicone well wherein the cell adhesion proteins or peptides were immobilized, which had been prepared in an almost same manner as that of Example 2, and static culture was conducted for 1 day. After confirming that the seeded cells confluently spread all over the culture face, horizontal cell stretching was forcibly started at the stretching degree of twenty five percents and at the frequency of 15 times per minute, by using cell culture stretching apparatus (Scholar Tec), and the culture was continued one more day. After the culture was finished, photographs of cell adhesion state were taken with a phase contrast microscope (FIG. 2, top 4 rows).
T2 cells, 5×10^4/cm^2 per unit area, were seeded on the silicone well wherein the cell adhesion proteins or peptides were immobilized, which had been prepared in an almost same manner as that of Example 2, and static culture was conducted for 3 days. T2 cells grew in a manner similar to that shown in FIG. 1, 3d (results are not shown because they are overlapping). Then, the cells were subjected to the same stimuli of forced stretching as in Example 1, and the culture was continued one more day. After the culture was finished, photographs of cell adhesion state were taken with a phase contrast microscope (FIG. 2, middle 4 rows) (FN, 3dC-1dS, LN, 3dC-1dS, FIB-1, 3dC-1dS, and AG-73, 3dC-1dS).
Forced stretching culture was conducted for 3 days in an almost same manner as stretching culture of Example 4. After the culture was finished, photographs of cell adhesion state were taken with a phase contrast microscope (FIG. 2, bottom 4 rows) (FN, 3dC-3dS, LN, 3dC-3dS, FIB-1, 3dC-3dS, and AG-73, 3dC-3dS).

Test [2] has the same test system. The test is described as follows: Time course of cell adhesion/spreading of T2 cells on immobilized cell adhesion peptide substrates. Type of test: cell-based. Conditions: 24-hour culture. How it is done:
Culture was conducted by using the cell adhesion peptides immobilized on a well and T2 cells, for 1-24 hours according to the method in Example 8.
As cell adhesion peptides, AG73 was used in B, E and M, FIB-1 was used in C, L and O, A3G72 was used in F, A4G82 was used in G and N, A5G71 was used in H, A5G77 was used in I, hA3G75 was used in J, and hA3G83 was used in K; FN was used as a standard substance in A and D.

Test [3] has the same test system. The test is described as follows: Binding strength (affinity) of immobilized LN peptides to T2 cells relative to immobilized FIB-1 (mixed immobilization, free FIB-1 competition). Type of test: cell-based. The arrangement: key to Binding strength to T2 cells, Comprehensive evaluation: AA: extremely strongly binding/adhering; A: strongly binding/adhering; B: intermediately binding/adhering (as the same degree as FIB-1 peptide); C: more weakly binding/adhering than FIB-1 peptide. The essentials: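 MMAC-coated wells coated with FIB-1 (0.25 mg/ml) mixed with LN peptide (e.g. AG73) at varied ratios; free FIB-1 competition. T2 cells cultured serum-free 1 day; adhesion expressed relative to immobilized FIB-1 (100%). Relative binding strength derived from mixing ratio at transitional midpoint.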

For test [4] the test system is unchanged. The test is described as follows: Inhibition by free cell adhesion peptides of T2 cell adhesion to coated cell adhesion proteins FN, Col I, LN, VN. Type of test: cell-based. Conditions: free peptide 0.25 mg/ml; serum-free, 1 day.
For test [5] the test system is unchanged. The test is described as follows: Inhibition of T2 cell adhesion to immobilized cell adhesion peptide substrates by heparin treatment. Type of test: cell-based. To be noted: 24-hour culture. The protocol:
100 μg/ml of heparin solution was poured into a well prepared according to the method in Example 6, wherein the cell adhesion peptides were immobilized, and the incubation was conducted for 2 hours. The heparin solution was removed after heparin bound to the immobilized cell adhesion peptides, and T2 cell suspension was seeded on the well.
It is theoretically shown that after the cell adhesion peptides first bind to heparin and are covered with heparin, the cell adhesion receptors having heparin-like sugar chain (heparan sulfate) present on the cell surface, in other words, syndecan, a protein that belongs to heparan sulfate proteoglycan, cannot bind to the cell adhesion peptides by using the sugar chain part of the heparan sulfate, thereby the cell adhesion is inhibited.

The test system is the same in test [6]. Conditions: known, usual requirement; cited from earlier work.
Test [7] shares this test system. The test is described as follows: Inhibition of T2 cell adhesion by free peptide different from the immobilized peptide substrate. In kind it is cell-based. The essentials: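 T2 cells cultured on immobilised peptide substrate, with a free peptide differing from the immobilised one added to the medium. Adhesion inhibition read as competition for syndecan binding.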

Take YAVTGRGDSPAS [reference compound]: in test [1] (1 day static, 1 day stretching (1dC-1dS), 25 percent, 15 times per minute), the “Reorientation of T2 cells under forced stretching” value is reported as “spread in an elongated shape to a direction perpendicular to the direction of forced stretching”. In addition, in test [1] (3 days static, 3 days stretching (3dC-3dS)), the “Change of type II epithelial cells into a shape like type I epithelial cells” value is reported as “less observed”. Also, the “Cell adhesion/spreading on immobilized peptide” value in test [2] is reported as “almost all cells had finished spreading”. The “Binding strength to T2 cells, Comprehensive evaluation” value in test [3] (classification relative to FIB-1 peptide) is “B”. The “Binding strength to T2 cells, Ratio to FIB-1” value in test [3] (inverse of mixing ratio at transitional midpoint, FIB-1 0.25 mg/ml, MMAC-coated well) is recorded as “(1)”. Besides, the “Inhibition of adhesion of T2 cells to FN, Col I, LN and VN by free peptide” value in test [4] was “does not exhibit inhibitory effect”. For the same sequence, in test [5] (100 μg/ml heparin 2 hours), the “Inhibition of cell adhesion to immobilized peptide by heparin treatment” value is “no inhibition”. In test [5] (immobilized peptide treated with 100 μg/ml heparin 2 hours), the “Inhibition degree of cell adhesion, Heparin” value was “No”. Further, the “Concentration of free FIB-1 peptide required to inhibit adhesion to FN” value in test [6] was not below 1 mg/mL. In addition, the “Inhibition by free peptide of T2 cell adhesion to immobilized AG73” value in test [7] (AG73 (etc.) immobilized) is “no inhibition occurred”. The “Inhibition by free peptide of T2 cell adhesion to immobilized AG73 and A4G82 peptides” value in test [7] (AG73 and A4G82 immobilized) was “could not inhibit”. Further, the “Inhibition by free peptide of T2 cell adhesion to immobilized AG81.2 and AG73T” value in test [7] (AG81.2 and AG73T immobilized) is “inhibited the adhesion”. The “Inhibition by free peptide of T2 cell adhesion to immobilized FIB-1” value in test [7] (FIB-1 immobilized) is given as “competitively inhibited”.
